Laboratory results as given in patent US12195427B2, “MASP-2 inhibitors and methods of use” (priority 2018, dated 2025).
Counter-ions that a name gives are not always drawn.

Biological target: MASP-2 CCP2-SP (Homo sapiens (Human), UniProt O00187)
Assay: MASP-2 co-crystallization, X-ray crystallography and structure analysis (H-bonds, van der Waals contacts);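 as to Ligand-pharmacophore element distance, pharmacophore element C2: distance from averaged pharmacophore element to bound ligand; missing value means element absent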;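 as to Ligand-pharmacophore element distance, pharmacophore element C3: distance from averaged pharmacophore element to bound ligand; missing value means element absent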;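 as to Ligand-pharmacophore element distance, pharmacophore element C4: distance from averaged pharmacophore element to bound ligand; missing value means element absent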;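 as to Ligand-pharmacophore element distance, pharmacophore element C5: distance from averaged pharmacophore element to bound ligand; missing value means element absent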
Parameters: van der Waals contact distance, MASP-2 HIS 483 atom CD2 / van der Waals contact distance, MASP-2 HIS 483 atom NE2 / van der Waals contact distance, SER 654 C to compound atom / van der Waals contact distance, SER 654 O to compound atom / van der Waals contact distance, TRP 655 C to compound atom / van der Waals contact distance, MASP-2 GLY 528 atom CA / van der Waals contact distance TRP 655 atom CZ3 / van der Waals contact distance TRP 655 atom N / van der Waals contact distance TRP 655 atom CE3 / van der Waals contact distance GLY 656 atom C / van der Waals contact distance GLY 656 atom CA / van der Waals contact distance GLY 656 atom O / van der Waals contact distance, MASP-2 TYR 607 atom CD1 / van der Waals contact distance, MASP-2 PRO 606 atom O / d(C3,CA1) / d(CA1,N1)2 / d(H4,O1) / d(H4,O2) / d(O1,O2) / d(CA1,O2) / d(CA6,O1) / d(CA6,O2) / d(CA1,C5) / d(O2,H3) / d(N2,C2) / d(CA5,N2) / d(N2,C4) / d(N2,C6) / d(N2,CA3) / d(N2,O3) / d(O4,H2): unit not given beside the values
Details: for H-bond distance to MASP-2 GLY 656 atom N: GLY 656 N; for H-bond distance to MASP-2 SER 654 atom O: SER 654 O; for van der Waals contact distance SER 657 atom C: MASP-2 SER 657 C, columns c12-c13 (inferred); for Ligand-pharmacophore element distance, pharmacophore element C2 / Ligand-pharmacophore element distance, pharmacophore element C3 / Ligand-pharmacophore element distance, pharmacophore element C4 / Ligand-pharmacophore element distance, pharmacophore element C5 / Ligand-pharmacophore element distance, pharmacophore element C6 / Ligand-pharmacophore element distance, pharmacophore element C7 / Ligand-pharmacophore element distance, pharmacophore element CA1 / Ligand-pharmacophore element distance, pharmacophore element CA2 / Ligand-pharmacophore element distance, pharmacophore element CA3 / Ligand-pharmacophore element distance, pharmacophore element CA4 / Ligand-pharmacophore element distance, pharmacophore element CA5 / Ligand-pharmacophore element distance, pharmacophore element CA6: Table A4-1; for A(N1, CA1, O1) a): all compounds with protonatable center N1 except Methyl-amino-pyridine; for Pharmacophore protein distance to MET_658 (first MET_658 column) / Pharmacophore protein distance to MET_658 (second MET_658 column) / Pharmacophore protein distance to GLY_528 / Pharmacophore protein distance to PHE_529 / Pharmacophore protein distance to PRO_608 / Pharmacophore protein distance to SER_611 / Pharmacophore protein distance to TRP_655: Table A8-6, nearest protein atom in cell to the left; for Pharmacophore protein distance to MET_658 (first MET_658 column): 6th residue column; for Pharmacophore protein distance to MET_658 (second MET_658 column): 9th residue column; for Pharmacophore protein distance to TRP_655: pharmacophore elements C6, CA3, O3, H1
From the text: This example illustrates the preparation of recombinant MASP-2 protein, based on UniProt O00187, human mannan-binding lectin serine protease 2. Expression constructs for human MASP-2 CCP2-SP and CCP2-SP-6HIS were generated for recombinant expression in E. coli cells.
Typically, crystallization hits were obtained by screening against […] 96-well crystallization reagent kits (GRAS6, GRAS2, Hampton Research; MORPHEUS, Molecular Dimensions; Wizard 1&2 Cryo, Rigaku Reagents) and crystal growth was inspected by optical microscopy. Crystals were used directly or further optimized for X-ray diffraction. Crystals were captured with cryogenic loops and dipped into liquid nitrogen directly or cryoprotected with a 20% glycerol in crystallization formulation before flash-cooling in liquid nitrogen.
Thereafter crystals are transferred once or twice for soaking within the crystallization solution containing the MASP-2 inhibitor.
Crystals were diffracted with synchrotron X-rays of […] and X-ray diffraction datasets were collected at beamlines SSRL BL9-2, BL14-1, BL12-2 as well as ALS sector 5 using Dectris Pilatus and Eiger detectors. Structures were determined by molecular replacement using portions of the structure 1Q3X as search models and partially refined with Buster 2.10.2 or Refmac 5.8. […] When multiple ligand poses were observed, for instance arising from multiple molecules in the asymmetric unit or refined dual poses within the same molecule, only one pose was selected and analyzed.
LigPlot+ calls these ‘nonbonded contacts’ or ‘hydrophobic contacts’. Despite the name, there are atom pairings that include possible H-bonds. Thus, in some instances, the Table A2 also contains H-bond interactions.

[1] = Table A5-1 pharmacophore: distance between elements, S2/S1 region
[2] = Table A5-2 pharmacophore distance, S3/S4 region
[3] = Table A7-1, between pharmacophore elements of the bound compound

Chain of MASP-2 CCP2-SP (O00187 445-686): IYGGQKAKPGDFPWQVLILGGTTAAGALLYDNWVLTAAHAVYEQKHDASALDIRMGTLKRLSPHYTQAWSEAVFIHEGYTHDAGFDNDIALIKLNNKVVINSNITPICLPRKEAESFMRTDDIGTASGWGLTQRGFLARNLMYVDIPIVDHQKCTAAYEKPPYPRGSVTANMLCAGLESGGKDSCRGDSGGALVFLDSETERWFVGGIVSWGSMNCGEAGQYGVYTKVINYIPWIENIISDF
Chain of MASP-2 CCP2-SP (O00187 364-432 partner): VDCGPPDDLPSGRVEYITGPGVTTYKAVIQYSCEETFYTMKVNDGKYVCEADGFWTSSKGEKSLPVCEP

## CNC(=O)c1ccc2c(=O)n(Cc3ccccc3)c(=O)n(CC(=O)NCc3ccc(C(=N)N)cc3)c2c1 [compound 2018, 3-Benzyl-1-(2-((4-carbamimidoylbenzyl)amino)-2-oxoethyl)-N-methyl-2,4-dioxo-1,2,3,4-tetrahydroquinazoline-7-carboxamide]
Table A1 (H-Bonds), GLN 665 OE1
  H-bond distance to MASP-2 GLN 665 atom OE1: 2.56
Table A1 (H-Bonds)
  H-bond distance to MASP-2 GLY 656 atom N: 3.26
  H-bond distance to MASP-2 SER 654 atom O: 2.94
Table A1 (H-Bonds), SER 628 O
  H-bond distance to MASP-2 SER 628 atom O: 3.01
Table A1 (H-Bonds), SER 633 OG
  H-bond distance to MASP-2 SER 633 atom OG: 3.08
Table A1 (H-Bonds), SER 657 O
  H-bond distance to MASP-2 SER 657 atom O: 2.84
Table A2-1
  van der Waals contact distance, MASP-2 HIS 483 atom CD2: 3.7
  van der Waals contact distance, MASP-2 HIS 483 atom NE2: 3.87
Table A2-3
  van der Waals contact distance, MASP-2 PHE 529 atom CE2: 3.68
Table A2-7 continued: CYS 629 (CA)
  van der Waals contact distance, MASP-2 amino acid atom to compound atom: 3.87
Table A2-11
  van der Waals contact distance, SER 654 C to compound atom: 3.79
Table A2-13, MASP-2 GLY 656 C
  van der Waals contact distance GLY 656 atom C: 3.64
Table A2-13, MASP-2 TRP 655 CE3, compound atom in line below
  van der Waals contact distance TRP 655 atom CE3: 3.76
Table A2-13, MASP-2 TRP 655 N
  van der Waals contact distance TRP 655 atom N: 3.89
Table A2-14, MASP-2 GLY 656 O
  van der Waals contact distance GLY 656 atom O: 3.3
Table A2-14
  van der Waals contact distance SER 657 atom C: 3.7
  Ligand-pharmacophore element distance, pharmacophore element C2: 0
  Ligand-pharmacophore element distance, pharmacophore element C3: 9.61
  Ligand-pharmacophore element distance, pharmacophore element C4: 0
  Ligand-pharmacophore element distance, pharmacophore element C5: 0
  Ligand-pharmacophore element distance, pharmacophore element C6: 0
  Ligand-pharmacophore element distance, pharmacophore element C7: 0
  Ligand-pharmacophore element distance, pharmacophore element CA1: 0.54
  Ligand-pharmacophore element distance, pharmacophore element CA2: 0
  Ligand-pharmacophore element distance, pharmacophore element CA3: 0
  Ligand-pharmacophore element distance, pharmacophore element CA4: 0
  Ligand-pharmacophore element distance, pharmacophore element CA5: 1.25
  Ligand-pharmacophore element distance, pharmacophore element CA6: 1.35
  Pharmacophore protein distance to MET_658 (first MET_658 column): 1.58
  Pharmacophore protein distance to MET_658 (second MET_658 column): 2.86
  Pharmacophore protein distance to GLY_528: 3.65
  Pharmacophore protein distance to PHE_529: 2.90
  Pharmacophore protein distance to PRO_608: 3.74
  Pharmacophore protein distance to SER_611: 2.86
  Pharmacophore protein distance to TRP_655: 3.77
[1]
  d(CA1,N1): 3.56
  d(CA1,O1): 7.59
  d(CA1,O2): 6.76
  d(CA6,O1): 2.73
  d(CA6,O2): 2.50
  d(H4,O1): 3.89
  d(H4,O2): 5.39
  d(O1,O2): 4.92
[2]
  d(O2,H3): 9.00
Table A6-1 pharmacophore angle
  a(CA1, O1, O2): 100.76
  a(O1, CA6, O2): 159.18
  a(O1, O2, H4): 118.45
  A(N1, CA1, O1) a): 169.37
Table A6-2 pharmacophore angle
  a(O1, O2, H3): 154.86
[3]
  Pharmacophore torsion angle a(CA6, O1, H4, O2): −9.94
  Pharmacophore torsion angle a(H4, O1, O2, H3): 30.27
  Pharmacophore torsion angle a(N1, CA1, O2, H4): −154.72
  Pharmacophore torsion angle a(O1, H4, O2, CA1): −146.71

## C[C@H](NC(=O)[C@H](N)C1Cc2ccccc2C1)C(=O)NCc1ccc2c(N)nccc2c1 [compound 1088, (S)-2-((R)-2-Amino-2-(2,3-dihydro-1H-inden-2-yl)acetamido)-N-((1-aminoisoquinolin-6-yl)methyl)propanamide Dihydrochloride]
Table A1 (H-Bonds), ASP 627 OD1
  H-bond distance to MASP-2 ASP 627 atom OD1: 2.91
Table A1 (H-Bonds), ASP 627 OD2
  H-bond distance to MASP-2 ASP 627 atom OD2: 3.16
Table A1 (H-Bonds)
  H-bond distance to MASP-2 GLY 656 atom N: 3.22
  H-bond distance to MASP-2 SER 654 atom O: 2.89
Table A1 (H-Bonds), SER 628 OG
  H-bond distance to MASP-2 SER 628 atom OG: 3.16
Table A2-4
  van der Waals contact distance, MASP-2 PRO 606 atom C: 3.89
  van der Waals contact distance, MASP-2 TYR 607 atom CD1: 3.82
Table A2-5: TYR 607 (CE1, CE2, OH), PRO 608 (CD, CG), SER 611 (CA)
  van der Waals contact distance, MASP-2 amino acid atom to compound atom: 3.73
Table A2-9, ARG 630, AA atoms CG, CZ
  van der Waals contact distance, MASP-2 amino acid atom to compound atom: 3.79
Table A2-14
  van der Waals contact distance SER 657 atom C: 3.64

## C[C@H](NC(=O)[C@H]1Cc2c([nH]c3ccccc23)CN1)C(=O)NCc1ccc(C(=N)N)cc1.Cl.Cl [1097_1]
  Ligand-pharmacophore element distance, pharmacophore element C2: 0.69
  Ligand-pharmacophore element distance, pharmacophore element C3: 0
  Ligand-pharmacophore element distance, pharmacophore element C4: 0
  Ligand-pharmacophore element distance, pharmacophore element C5: 0
  Ligand-pharmacophore element distance, pharmacophore element C6: 0
  Ligand-pharmacophore element distance, pharmacophore element C7: 0
  Ligand-pharmacophore element distance, pharmacophore element CA1: 0.29
  Ligand-pharmacophore element distance, pharmacophore element CA2: 0
  Ligand-pharmacophore element distance, pharmacophore element CA3: 0
  Ligand-pharmacophore element distance, pharmacophore element CA4: 0
  Ligand-pharmacophore element distance, pharmacophore element CA5: 0.98
  Ligand-pharmacophore element distance, pharmacophore element CA6: 0
  Pharmacophore protein distance to MET_658 (first MET_658 column): 2.40
  Pharmacophore protein distance to MET_658 (second MET_658 column): 3.49
  Pharmacophore protein distance to GLY_528: 3.46
  Pharmacophore protein distance to PHE_529: 2.89
  Pharmacophore protein distance to PRO_608: 3.89
  Pharmacophore protein distance to SER_611: 3.04
  Pharmacophore protein distance to TRP_655: 3.24
[1]
  d(CA1,N1): 3.53
  d(CA1,O1): 4.28
  d(CA1,O2): 4.28
  d(H4,O1): 3.88
  d(H4,O2): 3.35
  d(O1,O2): 3.32
[2]
  d(CA5,N2): 4.50
  d(N2,C2): 1.42
  d(O2,H3): 4.58
  d(O2,N2): 2.81
Table A6-1 pharmacophore angle
  a(CA1, O1, O2): 112.80
  a(O1, O2, H4): 125.81
  A(N1, CA1, O1) a): 162.99
Table A6-2 pharmacophore angle
  a(O1, O2, H3): 152.91
  a(O1, O2, N2): 134.93
  a(O2, N2, C2): 125.76
[3]
  Pharmacophore torsion angle a(H4, O1, O2, H3): 86.65
  Pharmacophore torsion angle a(H4, O1, O2, N2): 121.05
  Pharmacophore torsion angle a(N1, CA1, O2, H4): −97.71
  Pharmacophore torsion angle a(O1, H4, O2, CA1): −66.34
  Pharmacophore torsion angle a(O1, O2, N2, C2): 136.92
Table A7-2, between pharmacophore elements of the bound compound
  Pharmacophore torsion angle a(O1, O2, N2, CA5): 148.15
